ChEMBL document CHEMBL4393657, “Tetrazole hybrids and their antifungal activities” (2019)
≈ marks a conversion by molar mass, not a printed value.

Legend:
Type in all cases: functional
[1] = tested on: Cryptococcus neoformans; assay: Antifungal activity against Cryptococcus neoformans LA314 assessed as reduction in fungal cell growth incubated for 48 hrs by broth microdilution method; conditions: LA314, 48 h
[2] = tested on: Nakaseomyces glabratus; assay: Antifungal activity against Candida glabrata assessed as reduction in fungal cell growth incubated for 48 hrs by broth microdilution method
[3] = tested on: Candida parapsilosis; assay: Antifungal activity against Candida parapsilosis ATCC 22019 assessed as reduction in fungal cell growth incubated for 48 hrs by broth microdilution method; conditions: Lodderomyces parapsilosis, ATCC 22019, 48 h
[4] = tested on: Pichia kudriavzevii; assay: Antifungal activity against Candida krusei assessed as reduction in fungal cell growth incubated for 48 hrs by broth microdilution method
[5] = tested on: Candida albicans; assay: Antifungal activity against Candida albicans assessed as reduction in fungal cell growth incubated for 48 hrs by broth microdilution method
[6] = tested on: Candida tropicalis; assay: Antifungal activity against Candida tropicalis assessed as reduction in fungal cell growth incubated for 48 hrs by broth microdilution method
[7] = tested on: Aspergillus niger; assay: Antifungal activity against Aspergillus niger assessed as reduction in fungal cell growth incubated for 72 hrs by broth microdilution method

Row | MIC [1] | MIC [2] | MIC [3] | MIC [4] | MIC [5] | MIC [6] | MIC [7] | Structure (SMILES)
1 | 0.12 to 16 µg/mL (≈ 0.221 to 29.4 µM) | 0.12 to 16 µg/mL (≈ 0.221 to 29.4 µM) | 0.12 to 16 µg/mL (≈ 0.221 to 29.4 µM) | 0.12 to 16 µg/mL (≈ 0.221 to 29.4 µM) | 0.12 to 16 µg/mL (≈ 0.221 to 29.4 µM) | 0.12 to 16 µg/mL (≈ 0.221 to 29.4 µM) | 0.12 to 16 µg/mL (≈ 0.221 to 29.4 µM) | C[C@H](n1nnnc1CCN1CCN(c2ccccc2Cl)CC1)[C@](O)(Cn1cncn1)c1ccc(F)cc1F
2 | 0.5 to 16 µg/mL (≈ 0.919 to 29.4 µM) | 0.5 to 16 µg/mL (≈ 0.919 to 29.4 µM) | 0.5 to 16 µg/mL (≈ 0.919 to 29.4 µM) | 0.5 to 16 µg/mL (≈ 0.919 to 29.4 µM) | 0.5 to 16 µg/mL (≈ 0.919 to 29.4 µM) | 0.5 to 16 µg/mL (≈ 0.919 to 29.4 µM) | 0.5 to 16 µg/mL (≈ 0.919 to 29.4 µM) | CC(n1nnnc1CCN1CCN(c2ccccc2Cl)CC1)C(O)(Cn1cncn1)c1ccc(F)cc1F (stereo not drawn)
3 | 0.5 to 16 µg/mL (≈ 0.925 to 29.6 µM) | 0.5 to 16 µg/mL (≈ 0.925 to 29.6 µM) | 0.5 to 16 µg/mL (≈ 0.925 to 29.6 µM) | 0.5 to 16 µg/mL (≈ 0.925 to 29.6 µM) | 0.5 to 16 µg/mL (≈ 0.925 to 29.6 µM) | 0.5 to 16 µg/mL (≈ 0.925 to 29.6 µM) | 0.5 to 16 µg/mL (≈ 0.925 to 29.6 µM) | O=[N+]([O-])c1ccc(N2CCN(CCc3nnnn3CC(O)(Cn3cncn3)c3ccc(F)cc3F)CC2)cc1 (stereo not drawn)
4 | 1 to 16 µg/mL (≈ 1.85 to 29.7 µM) | 1 to 16 µg/mL (≈ 1.85 to 29.7 µM) | 1 to 16 µg/mL (≈ 1.85 to 29.7 µM) | 1 to 16 µg/mL (≈ 1.85 to 29.7 µM) | 1 to 16 µg/mL (≈ 1.85 to 29.7 µM) | 1 to 16 µg/mL (≈ 1.85 to 29.7 µM) | 1 to 16 µg/mL (≈ 1.85 to 29.7 µM) | COc1ccc(N2CCN(CCc3nnn(C(C)C(O)(Cn4cncn4)c4ccc(F)cc4F)n3)CC2)cc1 (stereo not drawn)
5 | 1 to 16 µg/mL (≈ 1.89 to 30.2 µM) | 1 to 16 µg/mL (≈ 1.89 to 30.2 µM) | 1 to 16 µg/mL (≈ 1.89 to 30.2 µM) | 1 to 16 µg/mL (≈ 1.89 to 30.2 µM) | 1 to 16 µg/mL (≈ 1.89 to 30.2 µM) | 1 to 16 µg/mL (≈ 1.89 to 30.2 µM) | 1 to 16 µg/mL (≈ 1.89 to 30.2 µM) | OC(Cn1cncn1)(Cn1nnc(CCN2CCN(c3cccc(Cl)c3)CC2)n1)c1ccc(F)cc1F (stereo not drawn)
6 | 0.5 to 16 µg/mL (≈ 0.974 to 31.2 µM) | 0.5 to 16 µg/mL (≈ 0.974 to 31.2 µM) | 0.5 to 16 µg/mL (≈ 0.974 to 31.2 µM) | 0.5 to 16 µg/mL (≈ 0.974 to 31.2 µM) | 0.5 to 16 µg/mL (≈ 0.974 to 31.2 µM) | 0.5 to 16 µg/mL (≈ 0.974 to 31.2 µM) | 0.5 to 16 µg/mL (≈ 0.974 to 31.2 µM) | OC(Cn1cncn1)(Cn1nnnc1CCN1CCN(c2ccc(F)cc2)CC1)c1ccc(F)cc1F (stereo not drawn)
7 | 1 to 16 µg/mL (≈ 1.91 to 30.6 µM) | 1 to 16 µg/mL (≈ 1.91 to 30.6 µM) | 1 to 16 µg/mL (≈ 1.91 to 30.6 µM) | 1 to 16 µg/mL (≈ 1.91 to 30.6 µM) | 1 to 16 µg/mL (≈ 1.91 to 30.6 µM) | 1 to 16 µg/mL (≈ 1.91 to 30.6 µM) | 1 to 16 µg/mL (≈ 1.91 to 30.6 µM) | CC(n1nnc(CCN2CCN(Cc3ccccc3)CC2)n1)C(O)(Cn1cncn1)c1ccc(F)cc1F (stereo not drawn)
8 | 0.25 to 16 µg/mL (≈ 0.463 to 29.7 µM) | 0.25 to 16 µg/mL (≈ 0.463 to 29.7 µM) | 0.25 to 16 µg/mL (≈ 0.463 to 29.7 µM) | 0.25 to 16 µg/mL (≈ 0.463 to 29.7 µM) | 0.25 to 16 µg/mL (≈ 0.463 to 29.7 µM) | 0.25 to 16 µg/mL (≈ 0.463 to 29.7 µM) | 0.25 to 16 µg/mL (≈ 0.463 to 29.7 µM) | COc1ccc(N2CCN(CCc3nnn([C@@H](C)[C@](O)(Cn4cncn4)c4ccc(F)cc4F)n3)CC2)cc1
9 | 1 to 16 µg/mL (≈ 1.67 to 26.7 µM) | 1 to 16 µg/mL (≈ 1.67 to 26.7 µM) | 1 to 16 µg/mL (≈ 1.67 to 26.7 µM) | 1 to 16 µg/mL (≈ 1.67 to 26.7 µM) | 1 to 16 µg/mL (≈ 1.67 to 26.7 µM) | 1 to 16 µg/mL (≈ 1.67 to 26.7 µM) | 1 to 16 µg/mL (≈ 1.67 to 26.7 µM) | CC(n1nnc(CCN2CCN(C(c3ccccc3)c3ccccc3)CC2)n1)C(O)(Cn1cncn1)c1ccc(F)cc1F (stereo not drawn)
10 | 0.25 to 16 µg/mL (≈ 0.451 to 28.9 µM) | 0.25 to 16 µg/mL (≈ 0.451 to 28.9 µM) | 0.25 to 16 µg/mL (≈ 0.451 to 28.9 µM) | 0.25 to 16 µg/mL (≈ 0.451 to 28.9 µM) | 0.25 to 16 µg/mL (≈ 0.451 to 28.9 µM) | 0.25 to 16 µg/mL (≈ 0.451 to 28.9 µM) | 0.25 to 16 µg/mL (≈ 0.451 to 28.9 µM) | C[C@H](n1nnc(CCN2CCN(c3ccc([N+](=O)[O-])cc3)CC2)n1)[C@](O)(Cn1cncn1)c1ccc(F)cc1F
11 | 1 to 16 µg/mL (≈ 1.84 to 29.4 µM) | 1 to 16 µg/mL (≈ 1.84 to 29.4 µM) | 1 to 16 µg/mL (≈ 1.84 to 29.4 µM) | 1 to 16 µg/mL (≈ 1.84 to 29.4 µM) | 1 to 16 µg/mL (≈ 1.84 to 29.4 µM) | 1 to 16 µg/mL (≈ 1.84 to 29.4 µM) | 1 to 16 µg/mL (≈ 1.84 to 29.4 µM) | CC(n1nnc(CCN2CCN(c3ccc(Cl)cc3)CC2)n1)C(O)(Cn1cncn1)c1ccc(F)cc1F (stereo not drawn)
12 | 0.5 to 16 µg/mL (≈ 0.919 to 29.4 µM) | 0.5 to 16 µg/mL (≈ 0.919 to 29.4 µM) | 0.5 to 16 µg/mL (≈ 0.919 to 29.4 µM) | 0.5 to 16 µg/mL (≈ 0.919 to 29.4 µM) | 0.5 to 16 µg/mL (≈ 0.919 to 29.4 µM) | 0.5 to 16 µg/mL (≈ 0.919 to 29.4 µM) | 0.5 to 16 µg/mL (≈ 0.919 to 29.4 µM) | CC(n1nnnc1CCN1CCN(c2cccc(Cl)c2)CC1)C(O)(Cn1cncn1)c1ccc(F)cc1F (stereo not drawn)
13 | 1 to 16 µg/mL (≈ 1.71 to 27.3 µM) | 1 to 16 µg/mL (≈ 1.71 to 27.3 µM) | 1 to 16 µg/mL (≈ 1.71 to 27.3 µM) | 1 to 16 µg/mL (≈ 1.71 to 27.3 µM) | 1 to 16 µg/mL (≈ 1.71 to 27.3 µM) | 1 to 16 µg/mL (≈ 1.71 to 27.3 µM) | 1 to 16 µg/mL (≈ 1.71 to 27.3 µM) | OC(Cn1cncn1)(Cn1nnc(CCN2CCN(C(c3ccccc3)c3ccccc3)CC2)n1)c1ccc(F)cc1F (stereo not drawn)
14 | 1 to 16 µg/mL (≈ 1.72 to 27.5 µM) | 1 to 16 µg/mL (≈ 1.72 to 27.5 µM) | 1 to 16 µg/mL (≈ 1.72 to 27.5 µM) | 1 to 16 µg/mL (≈ 1.72 to 27.5 µM) | 1 to 16 µg/mL (≈ 1.72 to 27.5 µM) | 1 to 16 µg/mL (≈ 1.72 to 27.5 µM) | 1 to 16 µg/mL (≈ 1.72 to 27.5 µM) | CCCCOc1ccccc1N1CCN(CCc2nnn(C(C)C(O)(Cn3cncn3)c3ccc(F)cc3F)n2)CC1 (stereo not drawn)
